Assay results taken from article PMC6267478, “Heterologous Expression of a Thermostable β-1,3-Galactosidase and Its Potential in Synthesis of Galactooligosaccharides” (Marine Drugs, 2018).

Test system: T1, rMaBGA (recombinant β-1,3-galactosidase MaBGA)
T1 construct: full-length ORF in pET-22b(+) NdeI/XhoI, 6xHis tag (C-terminal by vector and primer design), E. coli BL21(DE3), IMAC + SEC, 66 kDa on SDS-PAGE; primers imply N-terminus MKLGVCYY and native C-terminus AIWQEI before LE-His tag
Assay: ONP release at […] nm, nonlinear Michaelis-Menten fit
Assay type: biochemical, Marinomonas sp. BSi20414
Conditions: 50 mM PBS pH 7.0, 37 °C (general activity assay); 0.25-5 mM ONPG

- Km: 6.85 mM
SMILES: O=[N+]([O-])c1ccccc1O[C@@H]1O[C@H](CO)[C@H](O)[C@H](O)[C@H]1O [ONPG]
